Values joined by “and” are separate entries in the source; they are usually repeats but may differ in a detail not shown here. Equal entries are not always repeated. Inconclusive results and toxic doses are left out.
Tested on: CD2F1 mice, L1210 leukemia ip, survival T/C
Assay: NCI In Vivo Anticancer Drug Screen. Data for tumor model L1210 Leukemia (intraperitoneal) in CD2F1 (CDF1) mice
Conditions: higher = longer survival
Summary of the method: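 Ratio T/C, where T is the treated-group value and C the vehicle-dosed control value, from mice implanted with a transplantable tumor.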

[1] = endpoint: mean survival time, dose: 100.0 mg/kg/injection, schedule: Q01DX009 (ip), vehicle: saline with Tween-80
[2] = endpoint: mean survival time, dose: 200.0 mg/kg/injection, schedule: Q01DX009 (ip), vehicle: saline with Tween-80
[3] = endpoint: mean survival time, dose: 100.0 mg/kg/injection, schedule: Q04DX003 (ip), vehicle: saline with Tween-80
[4] = endpoint: mean survival time, dose: 100.0 mg/kg/injection, schedule: Q01DX001 (ip), vehicle: saline with Tween-80
[5] = endpoint: mean survival time, dose: 200.0 mg/kg/injection, schedule: Q01DX001 (ip), vehicle: saline with Tween-80
[6] = endpoint: mean survival time, dose: 100.0 mg/kg/injection, schedule: Q01DX001 (ip), vehicle: saline

## COc1cccc(Sc2ccc([N+](=O)[O-])c3no[n+]([O-])c23)c1
endpoint: median survival time, dose: 1.85 mg/kg/injection, schedule: Q01DX005 (ip), vehicle: saline with Tween-80
  T/C: 102 % of control
endpoint: median survival time, dose: 1.87 mg/kg/injection, schedule: Q01DX005 (ip), vehicle: saline with Tween-80
  T/C: 106 % of control
endpoint: median survival time, dose: 3.75 mg/kg/injection, schedule: Q01DX005 (ip), vehicle: saline with Tween-80
  T/C: 108 % of control and 109 % of control
endpoint: median survival time, dose: 7.5 mg/kg/injection, schedule: Q01DX005 (ip), vehicle: saline with Tween-80
  T/C: 107 % of control and 111 % of control
endpoint: median survival time, dose: 15.0 mg/kg/injection, schedule: Q01DX005 (ip), vehicle: saline with Tween-80
  T/C: 108 % of control
endpoint: median survival time, dose: 15.0 mg/kg/injection, schedule: Q01DX009 (ip), vehicle: saline with Tween-80
  T/C: 102 % of control and 104 % of control
endpoint: median survival time, dose: 30.0 mg/kg/injection, schedule: Q01DX005 (ip), vehicle: saline with Tween-80
  T/C: 102 % of control and 109 % of control
endpoint: median survival time, dose: 30.0 mg/kg/injection, schedule: Q01DX009 (ip), vehicle: saline with Tween-80
  T/C: 101 % of control and 103 % of control
endpoint: median survival time, dose: 60.0 mg/kg/injection, schedule: Q01DX009 (ip), vehicle: saline with Tween-80
  T/C: 96 % of control and 108 % of control
endpoint: median survival time, dose: 120.0 mg/kg/injection, schedule: Q01DX009 (ip), vehicle: saline with Tween-80
  T/C: 100 % of control

## NC(CNC(=O)CBr)C(=O)O (centres undefined)
endpoint: median survival time, dose: 3.0 mg/kg/injection, schedule: Q01DX009 (ip), vehicle: water
  T/C: 111 % of control
endpoint: median survival time, dose: 6.0 mg/kg/injection, schedule: Q01DX009 (ip), vehicle: water
  T/C: 122 % of control and 124 % of control
endpoint: median survival time, dose: 12.5 mg/kg/injection, schedule: Q01DX009 (ip), vehicle: water
  T/C: 122 % of control
endpoint: median survival time, dose: 24.0 mg/kg/injection, schedule: Q01DX009 (ip), vehicle: water
  T/C: 156 % of control
endpoint: median survival time, dose: 25.0 mg/kg/injection, schedule: Q01DX009 (ip), vehicle: water
  T/C: 120 % of control
endpoint: median survival time, dose: 48.0 mg/kg/injection, schedule: Q01DX009 (ip), vehicle: water
  T/C: 156 % of control

## CN(N)C=O
endpoint: mean survival time, dose: 25.0 mg/kg/injection, schedule: Q04DX003 (ip), vehicle: saline
  T/C: 98 % of control
endpoint: mean survival time, dose: 50.0 mg/kg/injection, schedule: Q04DX003 (ip), vehicle: saline
  T/C: 94 % of control
endpoint: mean survival time, dose: 100.0 mg/kg/injection, schedule: Q04DX003 (ip), vehicle: saline
  T/C: 102 % of control

## CC1(C)OC2COC(OCc3ccccc3)C(OCc3ccccc3)C2O1 (centres undefined)
[1]
  T/C: 104 % of control
[2]
  T/C: 101 % of control
endpoint: mean survival time, dose: 400.0 mg/kg/injection, schedule: Q01DX009 (ip), vehicle: saline with Tween-80
  T/C: 96 % of control

## CN(C)Cc1cc(C(C)(C)CC(C)(C)C)cc(CN(C)C)c1O
endpoint: mean survival time, dose: 25.0 mg/kg/injection, schedule: Q04DX003 (ip), vehicle: saline with Tween-80
  T/C: 98 % of control
endpoint: mean survival time, dose: 50.0 mg/kg/injection, schedule: Q04DX003 (ip), vehicle: saline with Tween-80
  T/C: 100 % of control
[3]
  T/C: 96 % of control and 97 % of control

## CSc1nc(N)c(C#N)cc1C#N
[4]
  T/C: 100 % of control
[5]
  T/C: 89 % of control
endpoint: mean survival time, dose: 400.0 mg/kg/injection, schedule: Q01DX001 (ip), vehicle: saline with Tween-80
  T/C: 89 % of control

## c1ccc(P(c2ccccc2)c2ccccc2)cc1
endpoint: mean survival time, dose: 50.0 mg/kg/injection, schedule: Q01DX009 (ip), vehicle: saline with Tween-80
  T/C: 96 % of control
[1]
  T/C: 100 % of control
[3]
  T/C: 100 % of control
[2]
  T/C: 98 % of control
endpoint: mean survival time, dose: 200.0 mg/kg/injection, schedule: Q04DX003 (ip), vehicle: saline with Tween-80
  T/C: 100 % of control
endpoint: mean survival time, dose: 400.0 mg/kg/injection, schedule: Q04DX003 (ip), vehicle: saline with Tween-80
  T/C: 93 % of control

## O=C(Nc1cccnc1)c1ccc([N+](=O)[O-])s1
endpoint: mean survival time, dose: 50.0 mg/kg/injection, schedule: Q01DX005 (ip), vehicle: saline + alcohol
  T/C: 111 % of control
endpoint: mean survival time, dose: 50.0 mg/kg/injection, schedule: Q01DX005 (ip), vehicle: saline
  T/C: 110 % of control
endpoint: mean survival time, dose: 100.0 mg/kg/injection, schedule: Q01DX005 (ip), vehicle: saline + alcohol
  T/C: 121 % of control
endpoint: mean survival time, dose: 100.0 mg/kg/injection, schedule: Q01DX005 (ip), vehicle: saline
  T/C: 160 % of control
endpoint: mean survival time, dose: 200.0 mg/kg/injection, schedule: Q01DX005 (ip), vehicle: saline + alcohol
  T/C: 107 % of control
endpoint: mean survival time, dose: 200.0 mg/kg/injection, schedule: Q01DX005 (ip), vehicle: saline
  T/C: 122 % of control
endpoint: median survival time, dose: 25.0 mg/kg/injection, schedule: Q01DX005 (ip), vehicle: saline
  T/C: 119 % of control
endpoint: median survival time, dose: 36.0 mg/kg/injection, schedule: Q01DX005 (ip), vehicle: saline
  T/C: 115 % of control
endpoint: median survival time, dose: 50.0 mg/kg/injection, schedule: Q01DX005 (ip), vehicle: saline
  T/C: 116 % of control
endpoint: median survival time, dose: 60.0 mg/kg/injection, schedule: Q01DX005 (ip), vehicle: saline
  T/C: 121 % of control

## CC1(C)N=C(N)N=C(N)N1c1cccc(CCCCc2ccc(Cl)c(S(=O)(=O)F)c2)c1
endpoint: mean survival time, dose: 1.8 mg/kg/injection, schedule: Q01DX009 (ip), vehicle: saline
  T/C: 98 % of control
endpoint: mean survival time, dose: 3.5 mg/kg/injection, schedule: Q01DX009 (ip), vehicle: saline
  T/C: 93 % of control
endpoint: mean survival time, dose: 7.0 mg/kg/injection, schedule: Q01DX009 (ip), vehicle: saline
  T/C: 91 % of control
endpoint: mean survival time, dose: 14.0 mg/kg/injection, schedule: Q01DX009 (ip), vehicle: saline
  T/C: 89 % of control
endpoint: mean survival time, dose: 28.0 mg/kg/injection, schedule: Q01DX009 (ip), vehicle: saline
  T/C: 104 % of control
endpoint: mean survival time, dose: 200.0 mg/kg/injection, schedule: Q04DX003 (ip), vehicle: saline sonified
  T/C: 86 % of control

## CN(C)C(=O)/N=N/C(=O)N(C)C
[6]
  T/C: 104 % of control

## C=C1C=CC1=O
endpoint: mean survival time, dose: 1.0 micrograms/kg/injection, schedule: Q01DX009 (ip), vehicle: olive oil, sesame oil, peanut oil
  T/C: 97 % of control
endpoint: mean survival time, dose: 1.0 micrograms/kg/injection, schedule: Q01DX009 (ip), vehicle: other
  T/C: 102 % of control
endpoint: mean survival time, dose: 6.0 micrograms/kg/injection, schedule: Q01DX009 (ip), vehicle: olive oil, sesame oil, peanut oil
  T/C: 97 % of control
endpoint: mean survival time, dose: 6.0 micrograms/kg/injection, schedule: Q01DX009 (ip), vehicle: other
  T/C: 103 % of control
endpoint: mean survival time, dose: 10.0 micrograms/kg/injection, schedule: Q01DX009 (ip), vehicle: olive oil, sesame oil, peanut oil
  T/C: 94 % of control
endpoint: mean survival time, dose: 10.0 micrograms/kg/injection, schedule: Q01DX009 (ip), vehicle: other
  T/C: 101 % of control
endpoint: mean survival time, dose: 60.0 micrograms/kg/injection, schedule: Q01DX009 (ip), vehicle: olive oil, sesame oil, peanut oil
  T/C: 96 % of control
endpoint: mean survival time, dose: 60.0 micrograms/kg/injection, schedule: Q01DX009 (ip), vehicle: other
  T/C: 104 % of control
endpoint: mean survival time, dose: 100.0 micrograms/kg/injection, schedule: Q01DX006 (ip), vehicle: other
  T/C: 101 % of control
endpoint: mean survival time, dose: 100.0 micrograms/kg/injection, schedule: Q01DX009 (ip), vehicle: olive oil, sesame oil, peanut oil
  T/C: 97 % of control
endpoint: mean survival time, dose: 100.0 micrograms/kg/injection, schedule: Q01DX009 (ip), vehicle: other
  T/C: 100 % of control
endpoint: mean survival time, dose: 600.0 micrograms/kg/injection, schedule: Q01DX009 (ip), vehicle: olive oil, sesame oil, peanut oil
  T/C: 91 % of control
endpoint: mean survival time, dose: 1000.0 micrograms/kg/injection, schedule: Q01DX009 (ip), vehicle: olive oil, sesame oil, peanut oil
  T/C: 96 % of control

## Nc1nc(=O)n(CCCOc2ccccc2NC(=O)Nc2cccc(S(=O)(=O)F)c2)cc1-c1ccc(Cl)c(Cl)c1
endpoint: mean survival time, dose: 75.0 mg/kg/injection, schedule: Q01DX001 (ip), vehicle: saline with Tween-80
  T/C: 95 % of control
endpoint: mean survival time, dose: 150.0 mg/kg/injection, schedule: Q01DX001 (ip), vehicle: saline with Tween-80
  T/C: 95 % of control
endpoint: mean survival time, dose: 300.0 mg/kg/injection, schedule: Q01DX001 (ip), vehicle: saline with Tween-80
  T/C: 101 % of control

## O=S(=O)(O)/[N+]([O-])=N/O
endpoint: mean survival time, dose: 100.0 mg/kg/injection, schedule: Q01DX009 (ip), vehicle: saline sonified
  T/C: 103 % of control
endpoint: mean survival time, dose: 200.0 mg/kg/injection, schedule: Q01DX009 (ip), vehicle: saline sonified
  T/C: 95 % of control
endpoint: mean survival time, dose: 400.0 mg/kg/injection, schedule: Q01DX009 (ip), vehicle: saline sonified
  T/C: 101 % of control

## O=C(/C=C/c1ccco1)c1cccnc1
[6]
  T/C: 94 % of control
endpoint: mean survival time, dose: 200.0 mg/kg/injection, schedule: Q01DX001 (ip), vehicle: saline
  T/C: 100 % of control
endpoint: mean survival time, dose: 400.0 mg/kg/injection, schedule: Q01DX001 (ip), vehicle: saline
  T/C: 100 % of control

## BrC1=C(Br)C(Br)(Br)C(Br)=C1Br
endpoint: mean survival time, dose: 1.25 mg/kg/injection, schedule: Q01DX009 (ip), vehicle: saline with Tween-80
  T/C: 106 % of control
endpoint: mean survival time, dose: 2.5 mg/kg/injection, schedule: Q01DX009 (ip), vehicle: saline with Tween-80
  T/C: 101 % of control
endpoint: mean survival time, dose: 5.0 mg/kg/injection, schedule: Q01DX009 (ip), vehicle: saline with Tween-80
  T/C: 101 % of control

## NNC(=O)CCCCCCCCCCCCCO
endpoint: mean survival time, dose: 50.0 mg/kg/injection, schedule: Q01DX001 (ip), vehicle: saline with Tween-80
  T/C: 98 % of control
[4]
  T/C: 101 % of control
[5]
  T/C: 101 % of control

Source: PubChem BioAssay AID256 (DTP/NCI, 2004)
